The supplement of paper PMC9013687
± gives the standard deviation of the averaged measurements.

Experiments:
Danio rerio embryo [1] = test: EC20 Yolk sac size_Increase; higher = less potent
Experimental: (§1)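 Zebrafish embryos (UFZ-OBI strain) were exposed from 2 hpf for 48 h (2 dpf) or 96 h (4 dpf) at 28 °C; spontaneous tail coiling was scored at 25 hpf. Morphological features from automated image analysis (FishInspector), heart rate and locomotor response were fitted with drc models. Quantal endpoints were dichotomised at 2.5 SD from controls and fitted with a log-logistic model; heart rate, pigmentation and STC were normalised to the replicate control mean. Betamethasone was tested as betamethasone dipropionate, diflorasone as diflorasone diacetate.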

Danio rerio embryo [2] = test: EC20 Body length_Decrease; higher = less potent
Experimental: as §1

Danio rerio embryo [3] = test: EC20 Any effect; higher = less potent
Experimental: as §1

Danio rerio embryo [4] = test: EC10 Pericard size_Increase; higher = less potent
Experimental: as §1

Danio rerio embryo [5] = test: EC20 LMR dark; higher = less potent; conditions: exposure time: 4 dpf
Experimental: as §1

Danio rerio embryo [6] = test: EC50 Otolith-eye distance_Decrease; conditions: exposure time: 4 dpf
Experimental: as §1

Danio rerio embryo [7] = test: EC50 Curvature_Increase
Experimental: as §1

Danio rerio embryo [8] = test: EC10 LMR dark; higher = less potent; conditions: exposure time: 4 dpf
Experimental: as §1

Danio rerio embryo [9] = test: EC20 Pericard size_Increase; higher = less potent
Experimental: as §1

Danio rerio embryo [10] = test: EC10 Otolith-eye distance_Decrease; higher = less potent; conditions: exposure time: 4 dpf
Experimental: as §1

Danio rerio embryo [11] = test: EC10 Curvature_Increase; higher = less potent
Experimental: as §1

Danio rerio embryo [12] = system: Danio rerio embryo
Experimental: as §1

Danio rerio embryo [13] = test: EC20 Eye-jaw distance_Decrease; higher = less potent; conditions: exposure time: 4 dpf
Experimental: as §1

Danio rerio embryo [14] = test: EC20 Bladder size_Decrease; higher = less potent; conditions: exposure time: 4 dpf
Experimental: as §1

Danio rerio embryo [15] = test: EC20 Otolith-eye distance_Decrease; higher = less potent; conditions: exposure time: 4 dpf
Experimental: as §1

Danio rerio embryo [16] = test: EC10 Bladder size_Decrease; higher = less potent; conditions: exposure time: 4 dpf
Experimental: as §1

Danio rerio embryo [17] = test: EC20 Curvature_Increase; higher = less potent
Experimental: as §1

Danio rerio embryo [18] = test: EC50 Pericard size_Increase
Experimental: as §1

Danio rerio embryo [19] = test: EC50 Body length_Decrease
Experimental: as §1

Danio rerio embryo [20] = test: EC50 Yolk sac size_Increase
Experimental: as §1

Danio rerio embryo [21] = test: EC10 Body length_Decrease; higher = less potent
Experimental: as §1

Danio rerio embryo [22] = conditions: exposure time: 4 dpf
Experimental: as §1

Danio rerio embryo [23] = test: EC10 Any effect; higher = less potent
Experimental: as §1

Danio rerio embryo [24] = test: spontaneous tail coiling frequency (coils/min/embryo); higher = more spontaneous movement; conditions: 25 hpf
Experimental: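 Spontaneous tail coilings of zebrafish embryos exposed from 2 hpf were recorded at 24-25 hpf in 1-min videos and detected by a KNIME workflow from grey-value variance. Betamethasone was tested as the dipropionate, diflorasone as the diacetate.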

Danio rerio embryo [25] = test: EC10 Yolk sac size_Increase; higher = less potent
Experimental: as §1

Danio rerio embryo [26] = test: EC50 Eye-jaw distance_Decrease; conditions: exposure time: 4 dpf
Experimental: as §1

Danio rerio embryo [27] = test: EC50 Bladder size_Decrease; conditions: exposure time: 4 dpf
Experimental: as §1

Danio rerio embryo [28] = test: EC10 Eye-jaw distance_Decrease; higher = less potent; conditions: exposure time: 4 dpf
Experimental: as §1

CCCCC(O)(Cn1cncn1)c1ccc(Cl)cc1Cl (stereo not given) [Hexaconazole]
Conditions	EC10 Any effect [µM]	EC10 Body length Decrease [µM]	EC10 Curvature Increase [µM]	EC10 Pericard size Increase [µM]	EC10 Yolk sac size Increase [µM]	EC20 Any effect [µM]	EC20 Body length Decrease [µM]	EC20 Curvature Increase [µM]	EC20 Pericard size Increase [µM]	EC20 Yolk sac size Increase [µM]	EC50 Any effect [µM]	EC50 Body length Decrease [µM]	EC50 Curvature Increase [µM]	EC50 Pericard size Increase [µM]	EC50 STC bell shape [µM]	EC50 Yolk sac size Increase [µM]	spontaneous tail coiling frequency
Danio rerio embryo [1], exposure time: 2 dpf	–	–	–	–	–	–	–	–	–	47.2	–	–	–	–	–	–	–
Danio rerio embryo [1], exposure time: 4 dpf	–	–	–	–	–	–	–	–	–	6.81	–	–	–	–	–	–	–
Danio rerio embryo [2], exposure time: 2 dpf	–	–	–	–	–	–	23.5	–	–	–	–	–	–	–	–	–	–
Danio rerio embryo [2], exposure time: 4 dpf	–	–	–	–	–	–	13.7	–	–	–	–	–	–	–	–	–	–
Danio rerio embryo [3], exposure time: 2 dpf	–	–	–	–	–	15.7	–	–	–	–	–	–	–	–	–	–	–
Danio rerio embryo [3], exposure time: 4 dpf	–	–	–	–	–	9.17	–	–	–	–	–	–	–	–	–	–	–
Danio rerio embryo [4], exposure time: 2 dpf	–	–	–	12.8	–	–	–	–	–	–	–	–	–	–	–	–	–
Danio rerio embryo [4], exposure time: 4 dpf	–	–	–	15.2	–	–	–	–	–	–	–	–	–	–	–	–	–
Danio rerio embryo [7], exposure time: 2 dpf	–	–	–	–	–	–	–	–	–	–	–	–	21.2	–	–	–	–
Danio rerio embryo [7], exposure time: 4 dpf	–	–	–	–	–	–	–	–	–	–	–	–	17.5	–	–	–	–
Danio rerio embryo [9], exposure time: 2 dpf	–	–	–	–	–	–	–	–	17.9	–	–	–	–	–	–	–	–
Danio rerio embryo [9], exposure time: 4 dpf	–	–	–	–	–	–	–	–	16.9	–	–	–	–	–	–	–	–
Danio rerio embryo [11], exposure time: 2 dpf	–	–	17.5	–	–	–	–	–	–	–	–	–	–	–	–	–	–
Danio rerio embryo [11], exposure time: 4 dpf	–	–	11.8	–	–	–	–	–	–	–	–	–	–	–	–	–	–
Danio rerio embryo [12], exposure time: 2 dpf	–	–	–	–	–	–	–	–	–	–	19.5	–	–	–	–	–	–
Danio rerio embryo [12], exposure time: 4 dpf	–	–	–	–	–	–	–	–	–	–	10.8	–	–	–	–	–	–
Danio rerio embryo [12], exposure time: 25 h	–	–	–	–	–	–	–	–	–	–	–	–	–	–	23.4	–	–
Danio rerio embryo [17], exposure time: 2 dpf	–	–	–	–	–	–	–	18.8	–	–	–	–	–	–	–	–	–
Danio rerio embryo [17], exposure time: 4 dpf	–	–	–	–	–	–	–	13.7	–	–	–	–	–	–	–	–	–
Danio rerio embryo [18], exposure time: 2 dpf	–	–	–	–	–	–	–	–	–	–	–	–	–	31.5	–	–	–
Danio rerio embryo [18], exposure time: 4 dpf	–	–	–	–	–	–	–	–	–	–	–	–	–	20.4	–	–	–
Danio rerio embryo [19], exposure time: 2 dpf	–	–	–	–	–	–	–	–	–	–	–	33.4	–	–	–	–	–
Danio rerio embryo [19], exposure time: 4 dpf	–	–	–	–	–	–	–	–	–	–	–	16.8	–	–	–	–	–
Danio rerio embryo [20], exposure time: 2 dpf	–	–	–	–	–	–	–	–	–	–	–	–	–	–	–	51.2	–
Danio rerio embryo [20], exposure time: 4 dpf	–	–	–	–	–	–	–	–	–	–	–	–	–	–	–	9.95	–
Danio rerio embryo [21], exposure time: 2 dpf	–	19.2	–	–	–	–	–	–	–	–	–	–	–	–	–	–	–
Danio rerio embryo [21], exposure time: 4 dpf	–	12.2	–	–	–	–	–	–	–	–	–	–	–	–	–	–	–
Danio rerio embryo [23], exposure time: 2 dpf	13.8	–	–	–	–	–	–	–	–	–	–	–	–	–	–	–	–
Danio rerio embryo [23], exposure time: 4 dpf	8.34	–	–	–	–	–	–	–	–	–	–	–	–	–	–	–	–
Danio rerio embryo [24], 5 µM	–	–	–	–	–	–	–	–	–	–	–	–	–	–	–	–	10.3
Danio rerio embryo [24], 9.9 µM	–	–	–	–	–	–	–	–	–	–	–	–	–	–	–	–	9.83 ± 1.7
Danio rerio embryo [24], 13.3 µM	–	–	–	–	–	–	–	–	–	–	–	–	–	–	–	–	9.46 ± 0.4
Danio rerio embryo [24], 19.9 µM	–	–	–	–	–	–	–	–	–	–	–	–	–	–	–	–	9.25 ± 2.5
Danio rerio embryo [24], 26.5 µM	–	–	–	–	–	–	–	–	–	–	–	–	–	–	–	–	1.62 ± 0.91
Danio rerio embryo [24], 53 µM	–	–	–	–	–	–	–	–	–	–	–	–	–	–	–	–	0
Danio rerio embryo [24], 79.6 µM	–	–	–	–	–	–	–	–	–	–	–	–	–	–	–	–	0
Danio rerio embryo [25], exposure time: 2 dpf	–	–	–	–	45	–	–	–	–	–	–	–	–	–	–	–	–
Danio rerio embryo [25], exposure time: 4 dpf	–	–	–	–	5.45	–	–	–	–	–	–	–	–	–	–	–	–

Conditions	EC10 Bladder size Decrease [µM]	EC10 Eye-jaw distance Decrease [µM]	EC10 LMR dark [µM]	EC10 Otolith-eye distance Decrease [µM]	EC20 Bladder size Decrease [µM]	EC20 Eye-jaw distance Decrease [µM]	EC20 LMR dark [µM]	EC20 Otolith-eye distance Decrease [µM]	EC50 Bladder size Decrease [µM]	EC50 Eye-jaw distance Decrease [µM]	EC50 LMR dark [µM]	EC50 Otolith-eye distance Decrease [µM]
Danio rerio embryo [5]	–	–	–	–	–	–	3.68	–	–	–	–	–
Danio rerio embryo [6]	–	–	–	–	–	–	–	–	–	–	–	19.8
Danio rerio embryo [8]	–	–	3.21	–	–	–	–	–	–	–	–	–
Danio rerio embryo [10]	–	–	–	19.6	–	–	–	–	–	–	–	–
Danio rerio embryo [13]	–	–	–	–	–	10.5	–	–	–	–	–	–
Danio rerio embryo [14]	–	–	–	–	7.52	–	–	–	–	–	–	–
Danio rerio embryo [15]	–	–	–	–	–	–	–	19.7	–	–	–	–
Danio rerio embryo [16]	6.28	–	–	–	–	–	–	–	–	–	–	–
Danio rerio embryo [22]	–	–	–	–	–	–	–	–	–	–	4.83	–
Danio rerio embryo [26]	–	–	–	–	–	–	–	–	–	13.1	–	–
Danio rerio embryo [27]	–	–	–	–	–	–	–	–	10.3	–	–	–
Danio rerio embryo [28]	–	9.21	–	–	–	–	–	–	–	–	–	–
